Data on 10 compounds can be found in US6586441B2, “Adenosine receptor ligands and their use in the treatment of disease” (Hoffman-La Roche Inc., priority 2000, dated 2003).

The target of assay [1] is T1, human adenosine A1 receptor (Homo sapiens, UniProt P30542).
T1 construct: expressed in transfected cells; host or cells: CHO cells, semliki forest virus expression system; membrane preparation
T1 sequence (P30542 1-326): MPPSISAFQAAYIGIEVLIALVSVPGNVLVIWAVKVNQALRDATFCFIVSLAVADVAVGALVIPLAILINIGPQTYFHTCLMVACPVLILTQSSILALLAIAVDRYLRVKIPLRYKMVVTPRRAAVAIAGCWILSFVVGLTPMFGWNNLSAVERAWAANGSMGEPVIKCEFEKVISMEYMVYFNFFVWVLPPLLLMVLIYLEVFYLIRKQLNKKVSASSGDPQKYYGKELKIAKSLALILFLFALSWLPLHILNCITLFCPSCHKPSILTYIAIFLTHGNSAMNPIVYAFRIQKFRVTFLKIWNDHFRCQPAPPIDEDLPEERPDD
The assay is described as follows: Human adenosine A1 receptor [3H]-DPCPX binding assay. The note with it: membranes of CHO cells, read-out: hA1 (pKi) (converted). How it is done: The gene encoding human adenosine A1 receptor was recombinantly introduced and expressed in chinese hamster ovary (CHO) cells using the semliki forest virus expression system. Cells were harvested, washed twice by centrifugation, homogenised and again washed by centrifugation. The final washed membrane pellet was suspended in a Tris (50 mM) buffer containing 120 mM NaCl, 5 mM KCl, 2 mM CaCl2 and 10 mM MgCl2 (pH 7.4) (buffer A). The [^3H]-DPCPX (([propyl-3H]8-cyclopentyl-1,3-dipropyxanthine); 0.6 nM) binding assay was carried out in 96-well plates in the presence of 2.5 μg of membrane protein, 0.5 mg of Ysi-poly-1-lysine SPA beads and 0. I U adenosine deaminase in a final volume of 200 μl of buffer A. Non-specific binding was defined using xanthine amine congener (XAC; 2 μM). Compounds were tested at 10 concentrations from 10 μM-0.3 nM. All assays were conducted in duplicate and repeated at least two times. Assay plates were incubated for 1 hour at room temperature before centrifugation and then bound ligand determined using a Packard Topcount scintillation counter. IC50 values were calculated using a non-linear curve fitting program and Ki values calculated using the Cheng-Prussoff equation.

In assay [2] the target is T2, human adenosine A3 receptor (Homo sapiens, UniProt P0DMS8).
T2 construct: expressed in transfected cells; host or cells: CHO cells, semliki forest virus expression system; membrane preparation
T2 sequence (P0DMS8 1-318): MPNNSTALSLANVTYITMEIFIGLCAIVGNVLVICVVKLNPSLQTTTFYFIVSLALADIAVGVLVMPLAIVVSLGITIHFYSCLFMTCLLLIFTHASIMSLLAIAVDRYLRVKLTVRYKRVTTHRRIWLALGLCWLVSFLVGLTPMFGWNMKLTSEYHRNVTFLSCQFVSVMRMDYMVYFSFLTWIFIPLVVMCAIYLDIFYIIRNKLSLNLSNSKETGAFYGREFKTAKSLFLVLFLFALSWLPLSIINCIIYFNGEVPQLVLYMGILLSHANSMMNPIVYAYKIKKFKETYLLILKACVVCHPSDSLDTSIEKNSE
The assay is described as follows: Human adenosine A3 receptor [125I]-AB-MECA binding assay. The note with it: membranes of CHO cells, read-out: hA3 (pKi) (converted). How it is done: The gene encoding human adenosine A3 receptor was recombinantly introduced and expressed in chinese hamster ovary (CHO) cells using the semliki forest virus expression system. Cells were harvested, washed twice by centrifugation, homogenised and again washed by centrifugation. The final washed membrane pellet was suspended in a Tris (50 mM) buffer containing 120 mM NaCl, 5 mM KCl, 2 mM CaCl2 and 10 mM MgCl2 (pH 7.4) (buffer A). The [^125I]-AB-MECA ([N(6)-(4-amino-3-iodobenzyl)-5′-N-methylcarbamoyl-adenosine]; 0.05 nM) binding assay was carried out in 96-well plates in the presence of 20 μg of membrane protein and 0.1 U adenosine deaminase in a final volume of 200 μl of buffer A. Non-specific binding was defined using xanthine amine congener (XAC; 2 μM). Compounds were tested at 10 concentrations from 10 μM-0.3 nM. All assays were conducted in duplicate and repeated at least two times. Assay plates were incubated for 1 hour at room temperature before filtration through Whatman Unifilter GF/C 96-well filter plates (preincubated with 0.3% polyethyleneimine). Filters were washed 3 times with 0.3 ml of cold (4° C.) Tris (50 mM)-Nacl (120 mM) buffer (pH 7.4). Microscint 40 scintillation fluid (50 μl) was added to each well and the wells sealed. After gentle shaking for 20 min, plates were counted on a Packard Topcount scintillation counter. IC50 values were calculated using a non-linear curve fitting program and Ki values calculated using the Cheng-Prussoff equation.

The target of assay [3] is T3, human adenosine A2A receptor (Homo sapiens, UniProt P29274).
T3 construct: expressed in transfected cells; host or cells: CHO cells, semliki forest virus expression system; membrane preparation
T3 sequence (P29274 whole entry): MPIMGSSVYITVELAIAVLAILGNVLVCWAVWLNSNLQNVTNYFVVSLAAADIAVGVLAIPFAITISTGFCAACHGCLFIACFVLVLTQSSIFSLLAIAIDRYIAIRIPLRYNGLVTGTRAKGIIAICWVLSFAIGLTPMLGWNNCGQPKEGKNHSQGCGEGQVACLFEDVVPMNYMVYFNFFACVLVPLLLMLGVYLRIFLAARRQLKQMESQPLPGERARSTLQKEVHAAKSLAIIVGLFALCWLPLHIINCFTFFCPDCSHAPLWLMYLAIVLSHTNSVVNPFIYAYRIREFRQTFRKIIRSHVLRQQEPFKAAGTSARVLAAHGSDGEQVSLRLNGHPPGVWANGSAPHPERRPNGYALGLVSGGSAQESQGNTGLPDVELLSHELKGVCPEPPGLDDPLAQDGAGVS
The assay is described as follows: Human adenosine A2A receptor [3H]-SCH-58261 binding assay. The method in brief:
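Membranes from CHO cells expressing the human receptor (Semliki Forest virus system) were incubated with 1 nM [3H]-SCH-58261 and adenosine deaminase. The buffer was Tris pH 7.4 with NaCl, KCl, CaCl2 and MgCl2, and the read-out was SPA after 1 h at room temperature. Non-specific binding was defined with XAC; compounds were run at 10 concentrations (10 μM–0.3 nM), and IC50 values were converted to Ki by Cheng-Prusoff.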

The mark [4] stands for this setting: human A2A receptor, selectivity table.
Setting [5] is: human A2a receptor, membranes of CHO cells, [3H]-SCH-58261, read-out: pKi (affinity to the human A2a receptor) (converted).
The mark [6] stands for this setting: human A2A receptor, selectivity table, read-out: hA2 (pKi) (converted).

Where two headings read alike, the source gives them in different places.

Take `CCc1ccc(CNc2nc(N)nc(-c3ccco3)c2C#N)cc1` [Example 375, 2-Amino-4-(4-ethyl-benzylamino)-6-furan-2-yl-pyrimidine-5-carbonitrile]: the Ki in assay [1] was 646 nM; in assay [2], 2140 nM; in assay [3] (setting [5]), 3.98 nM. In assay [3] (setting [4]), the “hA2 (pKi)” value was 8.40.
Turning to `N#Cc1c(NCc2ccccc2)nc(N)nc1-c1ccco1` [Example 42, 2-Amino-4-benzylamino-6-furan-2-yl-pyrimidine-5-carbonitrile], the Ki in assay [1] was 1660 nM; in assay [2], 8910 nM; in assay [3] (setting [5]) it was 4.68 nM. For the same compound, the “hA2 (pKi)” value in assay [3] (setting [4]) stood at 8.33.
For the compound `Cc1ccccc1CNc1nc(N)nc(-c2ccco2)c1C#N` [Example 288, 2-Amino-4-furan-2-yl-6-(2-methyl-benzylamino)-pyrimidine-5-carbonitrile], the Ki in assay [1] was 372 nM; in assay [2] it was 151 nM; in assay [3] (setting [5]) it was 2.57 nM. Moreover, the “hA2 (pKi)” value in assay [3] (setting [4]) is given as 8.59.
For `N#Cc1c(OCc2ccc3ccccc3c2)nc(N)nc1-c1ccco1` [Example 303, 2-Amino-4-furan-2-yl-6-(naphthalen-2-ylmethoxy)-pyrimidine-5-carbonitrile], in that order: 316 nM, 8710 nM, 2.51 nM and 8.60.
As to `N#Cc1c(/C=C/c2ccccc2)nc(N)nc1-c1ccco1` [Example 149, (E)-2-Amino-4-furan-2-yl-6-styryl-pyrimidine-5-carbonitrile], the figures for the Ki in assay [1], in assay [2] and in assay [3] (setting [5]) were 389 nM, 2040 nM and 4.57 nM, respectively. The “hA2 (pKi)” value in assay [3] (setting [4]) amounted to 8.34.
Consider `N#Cc1c(NCCNc2ccc(Cl)cc2)nc(N)nc1-c1ccco1` [Example 318, 2-Amino-4-[2-(4-chloro-phenylamino)-ethylamino]-6-furan-2-yl-pyrimidine-5-carbonitrile], for which the figures for the Ki in assay [1], in assay [2] and in assay [3] (setting [5]) were 851 nM, 7240 nM and 5.37 nM, respectively. Moreover, the “hA2 (pKi)” value in assay [3] (setting [4]) came to 8.27.
As for `COc1cc(-c2nc(N)nc(SC)c2C#N)cc(OC)c1OC` [Example 15, 2-Amino-4-methylsulfanyl-6-(3,4,5-trimethoxy-phenyl)-pyrimidine-5-carbonitrile], the Ki in assay [1] was 1320 nM; in assay [2] it was 1950 nM; in assay [3] (setting [6]), 57.5 nM.
In the case of `N#Cc1c(NCc2ccc(Br)cc2)nc(N)nc1-c1ccco1` [Example 325, 2-Amino-4-(4-bromo-benzylamino)-6-furan-2-yl-pyrimidine-5-carbonitrile], the Ki in assay [1] is 2880 nM; in assay [2], 3980 nM; in assay [3] (setting [5]), 5.5 nM. For the same compound, the “hA2 (pKi)” value in assay [3] (setting [4]) is 8.26.
For `N#Cc1c(NCCNc2ccccc2)nc(N)nc1-c1ccco1` [Example 132, 2-Amino-4-furan-2-yl-6-(2-phenylamino-ethylamino)-pyrimidine-5-carbonitrile] the same measures were 692 nM, 6030 nM, 4.68 nM and 8.33.
`N#Cc1cnc(N)nc1-c1cccs1` [Example 26, 2-Amino-4-thiophen-2-yl-2-pyrimidine-5-carbonitrile]: the Ki in assay [1] was 2510 nM; in assay [2] it was 1260 nM; in assay [3] (setting [6]), 36.3 nM.
